Assay results from US8192962B2, “Processes for detecting toxic substances” (Daikin Industries, Ltd., priority 2001, dated 2012).

System: Mitochondria-located protein genes
Test: DNA chip mRNA expression in yeast, mitochondria-located protein genes (Table 2)
Assay type: cell-based, Saccharomyces cerevisiae S288C
Conditions: cells incubated two hours with the chemical substance
In short: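 Untreated cultures served as reference for log-phase S288C yeast given a growth-inhibiting, non-lethal toxicant dose for 2 h at 25° C. in YPD. Gene expression was measured on a whole-genome DNA chip from Cy3/Cy5-labeled cDNA.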

Measured: The level of expressed mRNA in the presence of chemical substance/The level of expressed mRNA in the absence of chemical substance

Oc1cc(Cl)c(Cl)cc1Cl [(6), 2,4,5-trichlorophenol]
2.6: yeast gene YGR244C | yeast gene YNL055C
3.4: yeast gene YKL142W
1.9: yeast gene YLR304C | yeast gene YLR348C
2.0: yeast gene YBR251W
1.7: yeast gene YBR221C | yeast gene YDR079W | yeast gene YML129C | yeast gene YOR187W
7.5: yeast gene YMR152W
2.3: yeast gene YOR020C
2.9: yeast gene YGR008C
1.2: yeast gene YBL022C | yeast gene YBR003W | yeast gene YBR185C | yeast gene YDL181W | yeast gene YDR298C | yeast gene YDR347W | yeast gene YGR076C | yeast gene YJR045C | yeast gene YKL141W | yeast gene YLL041C | yeast gene YLR038C | yeast gene YMR089C | yeast gene YOR100C | yeast gene YPL134C
1.0: yeast gene YBR044C | yeast gene YHR008C | yeast gene YJL096W | yeast gene YKL003C | yeast gene YPR024W | yeast gene YPR047W
2.5: yeast gene YER178W
0.4: yeast gene YGL018C | yeast gene YLR395C
1.1: yeast gene YBL030C | yeast gene YBR122C | yeast gene YEL024W | yeast gene YGL187C | yeast gene YGR082W | yeast gene YLR295C | yeast gene YMR023C | yeast gene YMR203W | yeast gene YPL040C
2.4: yeast gene YCR083W | yeast gene YDR258C
0.5: yeast gene YJL133W | yeast gene YKL148C | yeast gene YNL073W | yeast gene YNL256W
1.6: yeast gene YGL191W | yeast gene YJL102W | yeast gene YOR037W | yeast gene YOR130C | yeast gene YOR142W | yeast gene YPL262W
0.7: yeast gene YBL038W | yeast gene YBR091C | yeast gene YJL166W | yeast gene YPL215W
1.3: yeast gene YDR377W | yeast gene YFL016C | yeast gene YJL180C | yeast gene YNL071W | yeast gene YOL096C | yeast gene YPL135W
1.8: yeast gene YCL057W | yeast gene YML054C | yeast gene YMR083W
2.1: yeast gene YDR178W
1.5: yeast gene YEL039C | yeast gene YGR028W | yeast gene YJR121W | yeast gene YKL170W | yeast gene YMR035W
1.4: yeast gene YBR282W | yeast gene YGR174C | yeast gene YIL155C | yeast gene YKL194C | yeast gene YMR267W
0.8: yeast gene YAL039C | yeast gene YCR046C | yeast gene YDL198C | yeast gene YDR529C | yeast gene YKL016C | yeast gene YNL104C
2.2: yeast gene YDR231C
0.6: yeast gene YML120C | yeast gene YPR134W
0.9: yeast gene YBL099W | yeast gene YDL067C | yeast gene YGR062C | yeast gene YJR077C | yeast gene YKR066C | yeast gene YLR259C | yeast gene YOR150W | yeast gene YOR176W | yeast gene YOR316C | yeast gene YPR037C
